Reference: patent publication US7750148B2, “Intermediate compound for the production of β-lactamase-resistant cephalosporin ester compounds and salts thereof” (Zhejiang Yongning Pharmaceutical Factory, priority 2003, dated 2010)
Read-outs that look alike come from different tables or passages of the source.

Legend:
[1] = system: Staphylococcus epidermidis 26069; assay: In vitro antibacterial activity (MIC, agar double dilution); format: cell-based; conditions: read-out: MIC of the drug to bacteria
Text: (§1) tested samples YR-1, YR-2 were the ones prepared in example 1 and example 5 respectively, control samples were cefetamet sodium (CTM), cefuroxime sodium (CRX), cefetamet sodium+sulbactam sodium (CTM+SBT) (molar ratio 1:1), cefuroxime+sulbactam sodium (CRX+SBT) (molar ratio 1:1). All control samples (have been sold on the market) were supplied by Zhejiang Yongning pharmaceutical factory.
(§2) Staphylococcus epidermidis 26069 and Bacillus aerogenes 45102 were supplied by Beijing Drug & Biology Product Appraisal Bureau.
(§3) Mueller-Hinton Agar (M.H) culture medium, batch number 20040528 (Shanghai Reagent Supply Research Center, China Diarrhea Disease Control).
(§4) Adopted agar double dilution, inoculated using multipoint inoculator, inoculated 10^5CFU/ML each point, cultured for 24 hours at 37° C., observed and recorded the results, set the least concentration of the antibacterial drug that can inhibit bacteria growth as the minimum inhibitory concentration (MIC).

Bacillus aerogenes 45102 = assay: as above; format: cell-based; conditions: Bacillus, 45102, 24 h, read-out: MIC of the drug to bacteria
Text: as §1, §2, §3, §4

[2] = system: Bacillus proteus 49085, Proteus morganii 49086; assay: Ex vivo antibacterial activity experiment after mouse is administered, conclusions (strains not separated); format: in vivo; conditions: mice, intravenous injection 500 mg/kg
Text: the sources of tested samples (YR-1, YR-2) and control samples (CTM, CRX, CTM+SBT 1:1 and CRX+SBT 1:1) are the same as above. Bacillus proteus 49085, Proteus morganii 49086, inoculated 10^5CFU/ML each dish. Mueller-Hinton Agar (M.H) culture medium, batch number 000707 (Shanghai Reagent Supply Research Center, China Diarrhea Disease Control). Strain: Kunming mice; source: Animal Facility of Shanghai Institute of Pharmaceutical Industry; certificate number: Hudonghezhengzi No. 107; animal numbers: 120; Sex: same number of male and female mice; Body weight: 18-21 g; fast time: 16 hours. Group 1: CTM, CRX, CTM+SBT 1:1, CRX+SBT 1:1 were given at a dosage of 500 mg/kg intravenously, collecting blood at 10 minutes, 30 minutes, 1 hour, 2 hours, 4 hours, 8 hours after administration. Group 2: […] Kunming mice were randomly divided into several groups according to body weight of empty stomach and sex. Collecting blood of three mice at different time point, anticoagulated with heparin, centrifugated and separated plasma, quantitative spotting, semi-quantitated antibacterial activity according to the size of bacterial inhibition ring.

Proteus morganii 49086 = assay: In vitro antibacterial activity (MIC, agar double dilution); format: cell-based
Text: as §1
(§5) Staphylococcus aureus 26003, Diplococcus lanceolatus 31002, E. coli 44102, Shigella sonnet 51081, Shigella bogdii 51313, Shigella flexneri 51573, Proteus mirabilis 49005, Bacillus proteus 49085, Proteus morganii 49086, Pseudomonas aeruginosa 10124, Bacillus pneumoniae 46101, Salmonella enteritidis 50041, Salmonella typhi 50097, Citrobacter 48017, Candida ciferii 41002 were supplied by Shanghai Hygienic and Antiepidemic Station.
as §3, §4

Shigella bogdii 51313 = assay: as above; format: cell-based; conditions: Shigella, 51313, 24 h, read-out: MIC of the drug to bacteria
Text: as §1, §5, §3, §4

Bacillus proteus 49085 = assay: as above; format: cell-based; conditions: read-out: MIC of the drug to bacteria
Text: as §1, §5, §3, §4

[3] = system: Bacillus pneumoniae 46101; assay: as above; format: cell-based; conditions: read-out: MIC of the drug to bacteria
Text: as §1, §5, §3, §4

Salmonella typhi 50097 = assay: as above; format: cell-based; conditions: Salmonella enterica, 10^5CFU/ML each point, 24 hours at 37° C., read-out: MIC of the drug to bacteria
Text: as §1, §5, §3, §4

E. coli 44102 = assay: as above; format: cell-based; conditions: read-out: MIC of the drug to bacteria
Text: as §1, §5, §3, §4

Citrobacter 48017 = assay: as above; format: cell-based; conditions: Citrobacter, 48017, 24 h, read-out: MIC of the drug to bacteria
Text: as §1, §5, §3, §4

[4] = system: Salmonella enteritidis 50041; assay: as above; format: cell-based; conditions: Salmonella enterica, read-out: MIC of the drug to bacteria
Text: as §1, §5, §3, §4

Proteus mirabilis 49005 = assay: as above; format: cell-based; conditions: Proteus mirabilis, 49005, 24 h, read-out: MIC of the drug to bacteria
Text: as §1, §5, §3, §4

[5] = system: Diplococcus lanceolatus 31002; assay: as above; format: cell-based; conditions: read-out: MIC of the drug to bacteria
Text: as §1, §5, §3, §4

Candida ciferii 41002 = assay: as above; format: cell-based; conditions: read-out: MIC of the drug to bacteria
Text: as §1, §5, §3, §4

[6] = system: Staphylococcus aureus 26003; assay: as above; format: cell-based; conditions: Staphylococcus aureus, 26003, 24 h, read-out: MIC of the drug to bacteria
Text: as §1, §5, §3, §4

Shigella flexneri 51573 = assay: as above; format: cell-based; conditions: Shigella flexneri, 51573, 24 h, read-out: MIC of the drug to bacteria
Text: as §1, §5, §3, §4

Shigella sonnet 51081 = assay: as above; format: cell-based; conditions: Shigella, 51081, 24 h, read-out: MIC of the drug to bacteria
Text: as §1, §5, §3, §4

[7] = system: Pseudomonas aeruginosa 10124; assay: as above; format: cell-based; conditions: read-out: MIC of the drug to bacteria
Text: as §1, §5, §3, §4

[8] = system: Diplococcus lanceolatus 0031; assay: as above; format: cell-based; conditions: read-out: MIC of the drug to bacteria
Text: as §1
Diplococcus lanceolatus 0031 was supplied by Shanghai First People's Hospital.
as §3, §4

[9] = system: type II, III, IV, V β-lactamase; conditions: at a concentration of 2 μg/ml; cited from earlier work

CO/N=C(\C(=O)N[C@@H]1C(=O)N2C(C(=O)O)=C(C)CS[C@H]12)c1csc(N)n1 [CTM, cefetamet sodium, reference compound]
MIC ([1]; Staphylococcus epidermidis, 26069, 24 h): 12.5 µg/mL
MIC (Bacillus aerogenes 45102): 0.195 µg/mL
antibacterial activities in blood 8 hours after administration [2]: can not be detected
MIC (Proteus morganii 49086; Morganella morganii, 49086, 24 h, read-out: MIC of the drug to bacteria): > 100 µg/mL
MIC (Proteus morganii 49086; Morganella morganii, 49086, read-out: MIC (as restated in the conclusions)): > 100000 µg/mL
MIC (Shigella bogdii 51313): 0.39 µg/mL
MIC (Bacillus proteus 49085; Bacillus, 49085, 24 h): 0.195 µg/mL
MIC ([3]; Klebsiella pneumoniae, 46101, 24 h): 0.78 µg/mL
MIC (Salmonella typhi 50097): 0.78 µg/mL
MIC (E. coli 44102; Escherichia coli, 44102, 24 h): 0.78 µg/mL
MIC (Citrobacter 48017): 1.56 µg/mL
MIC ([4]; ENTERITIDIS, 24 h): 0.78 µg/mL
MIC (Proteus mirabilis 49005): 0.195 µg/mL
MIC ([5]; 24 h): > 100 µg/mL
MIC (Candida ciferii 41002; Candida, 41002, 24 h): 0.78 µg/mL
MIC [6]: 100 µg/mL
MIC (Shigella flexneri 51573): 0.78 µg/mL
MIC (Shigella sonnet 51081): 0.39 µg/mL
MIC ([7]; Pseudomonas aeruginosa, 10124, 24 h): 100 µg/mL
MIC ([8]; 24 h): 25 µg/mL

CO/N=C(\C(=O)N[C@@H]1C(=O)N2C(C(=O)O)=C(COC(N)=O)CS[C@H]12)c1ccco1 [CRX, cefuroxime sodium, reference compound]
MIC ([1]; Staphylococcus epidermidis 26069, 10^5CFU/ML each point, 24 hours at 37° C.): 0.39 µg/mL
MIC (Bacillus aerogenes 45102): 3.13 µg/mL
antibacterial activities in blood 8 hours after administration [2]: can not be detected
MIC (Proteus morganii 49086; Morganella morganii, Proteus morganii 49086, 10^5CFU/ML each point, 24 hours at 37° C., read-out: MIC of the drug to bacteria): 100 µg/mL
MIC (Shigella bogdii 51313): 1.56 µg/mL
MIC (Bacillus proteus 49085; Bacillus proteus 49085, 10^5CFU/ML each point, 24 hours at 37° C.): 0.78 µg/mL
MIC ([3]; Klebsiella pneumoniae, Bacillus pneumoniae 46101, 10^5CFU/ML each point, 24 hours at 37° C.): 25 µg/mL
MIC (Salmonella typhi 50097): 3.13 µg/mL
MIC (E. coli 44102; Escherichia coli, E. coli 44102, 10^5CFU/ML each point, 24 hours at 37° C.): 6.25 µg/mL
MIC (Citrobacter 48017): 1.56 µg/mL
MIC ([4]; Salmonella enteritidis 50041, 10^5CFU/ML each point, 24 hours at 37° C.): 6.25 µg/mL
MIC (Proteus mirabilis 49005): 1.56 µg/mL
MIC ([5]; Diplococcus lanceolatus 31002, 10^5CFU/ML each point, 24 hours at 37° C.): 25 µg/mL
MIC (Candida ciferii 41002; Candida ciferii 41002, 10^5CFU/ML each point, 24 hours at 37° C.): 25 µg/mL
MIC [6]: 1.56 µg/mL
MIC (Shigella flexneri 51573): 1.56 µg/mL
MIC (Shigella sonnet 51081): 0.78 µg/mL
MIC ([7]; Pseudomonas aeruginosa 10124, 10^5CFU/ML each point, 24 hours at 37° C.): 100 µg/mL
MIC ([8]; Diplococcus lanceolatus 0031, 10^5CFU/ML each point, 24 hours at 37° C.): 0.78 µg/mL

CC1(C)[C@H](C(=O)O)N2C(=O)C[C@H]2S1(=O)=O [Sulbactam]
inhibition to β-lactamase [9]: extremely strong inhibition
